Laboratory results published in patent US5776903A, “Peptide derivatives usable as zinc endopeptidase 24-15 inhibitors” (Commissariat A l'Energie Atomique, priority 1995, dated 1998).

Tests used:
[1] = biological target: endopeptidase 24-16 (Homo sapiens, UniProt Q9BYT8); test: Inhibition of neurotensin degradation by purified endopeptidase 24-16 (HPLC), inhibition constant Ki; format: biochemical; conditions: neurotensin 20 μmole/l, 1 hour at 30° C., tris-HCl pH 7.5
Experimental: This example studies the inhibiting effect of the peptides of the invention with respect to endopeptidase 24-16.
To this end, incubation takes place for 1 hour at 30° C. of 2 nmole (20 μmole/l) of neurotensin, which is a known endopeptidase 24-16 substrate with 8 μg of endopeptidase 24-16 purified in a final volume of 100 μl of tris-HCl buffer, 50 mM, pH 7.5, in the absence of peptide (control) or in the presence of the peptide tested at concentrations from 10^-11 to 10^-7 mole/l. After 1 hour of incubation analysis takes place of the solutions by HPLC and the inhibition constant Ki of the tested peptide is determined.

[2] = biological target: endopeptidase 24-15 (Rattus norvegicus, UniProt P24155); test: Inhibition of neurotensin degradation by purified endopeptidase 24-15 (HPLC), inhibition constant Ki; conditions: for SELECTIVITY (ratio Ki24-16 /Ki24-15): selectivity relative to endopeptidase 24-16
endopeptidase 24-15, sequence (P24155 whole entry): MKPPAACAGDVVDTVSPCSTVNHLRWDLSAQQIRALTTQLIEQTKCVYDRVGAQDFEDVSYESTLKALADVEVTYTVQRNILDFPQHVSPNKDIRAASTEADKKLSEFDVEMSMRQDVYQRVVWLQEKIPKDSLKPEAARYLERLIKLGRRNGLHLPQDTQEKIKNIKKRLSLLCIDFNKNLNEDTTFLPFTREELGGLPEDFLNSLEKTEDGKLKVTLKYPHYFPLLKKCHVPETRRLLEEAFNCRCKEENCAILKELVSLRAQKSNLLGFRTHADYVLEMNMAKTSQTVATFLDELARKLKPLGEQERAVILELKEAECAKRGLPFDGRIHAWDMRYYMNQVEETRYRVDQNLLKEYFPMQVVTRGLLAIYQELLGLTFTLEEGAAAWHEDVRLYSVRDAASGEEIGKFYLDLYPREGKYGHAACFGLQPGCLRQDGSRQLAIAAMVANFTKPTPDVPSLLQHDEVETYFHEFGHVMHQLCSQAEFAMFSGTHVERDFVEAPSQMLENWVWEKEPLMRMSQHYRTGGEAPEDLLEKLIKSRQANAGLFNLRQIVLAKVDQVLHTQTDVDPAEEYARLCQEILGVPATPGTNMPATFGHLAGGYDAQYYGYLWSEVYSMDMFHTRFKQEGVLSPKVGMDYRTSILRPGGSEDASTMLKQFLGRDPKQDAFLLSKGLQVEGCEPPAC
Experimental: Incubation takes place for 1 hour at 37° C. of 2 nmole (20 μmole/l) of neurotensin, which is a known endopeptidase 24-15 substrate, with 7 μg of purified endopeptidase 24-15 in a final volume of 100 μl of tris-HCl buffer, 50 nM, pH 7.5, in the absence of an inhibitor (control) or in the presence of the peptide tested at concentrations from 10^-11 to 10^-7 mole/l. After 1 hour incubation analysis takes place of the solutions by HPLC. On the basis of this analysis the inhibition constant Ki of the tested peptide is determined.

endopeptidase 24-16, sequence (Q9BYT8 38-704): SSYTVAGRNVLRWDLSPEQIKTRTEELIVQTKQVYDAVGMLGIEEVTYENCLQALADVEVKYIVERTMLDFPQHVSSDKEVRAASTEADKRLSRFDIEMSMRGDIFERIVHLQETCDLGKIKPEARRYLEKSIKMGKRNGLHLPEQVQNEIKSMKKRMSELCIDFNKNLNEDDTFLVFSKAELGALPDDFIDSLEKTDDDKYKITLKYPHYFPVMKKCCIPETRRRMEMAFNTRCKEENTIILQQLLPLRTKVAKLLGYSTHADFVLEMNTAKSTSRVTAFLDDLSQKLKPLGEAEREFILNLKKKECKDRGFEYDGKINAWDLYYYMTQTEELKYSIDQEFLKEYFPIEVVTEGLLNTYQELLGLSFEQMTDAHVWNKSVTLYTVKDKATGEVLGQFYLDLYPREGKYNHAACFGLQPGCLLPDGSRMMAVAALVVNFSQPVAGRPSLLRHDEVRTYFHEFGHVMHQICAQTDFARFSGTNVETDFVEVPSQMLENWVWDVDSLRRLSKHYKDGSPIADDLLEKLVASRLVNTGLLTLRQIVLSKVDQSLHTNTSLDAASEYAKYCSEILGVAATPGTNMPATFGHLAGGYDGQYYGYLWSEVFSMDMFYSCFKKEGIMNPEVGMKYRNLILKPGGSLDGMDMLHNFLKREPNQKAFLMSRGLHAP

Row | Compound | Ki [1] | Ki [2] | SELECTIVITY (ratio Ki24-16 /Ki24-15) [2]
1 | CSCC[C@H](NC(=O)[C@H](CCCNC(=N)N)NC(=O)CCP(=O)(O)C(Cc1ccccc1)NC(=O)OCc1ccccc1)C(=O)O (mixture of isomers) [compound 1, Z--Phe .PSI. (PO2 CH2)Gly--Arg--Met] | 132 nM | 0.35 nM | 377
2 | CCCC[C@H](NC(=O)[C@H](CCCNC(=N)N)NC(=O)CCP(=O)(O)C(Cc1ccccc1)NC(=O)OCc1ccccc1)C(=O)O (mixture of isomers) [compound 2, Z--Phe .PSI. (PO2 CH2)Gly--Arg--Nle] | 213 nM | 1.6 nM | 135
3 | C[C@H](NC(=O)[C@H](CCCNC(=N)N)NC(=O)CCP(=O)(O)C(Cc1ccccc1)NC(=O)OCc1ccccc1)C(=O)O (mixture of isomers) [compound 3, Z--Phe .PSI. (PO2 CH2)Gly--Arg--Ala] | 201 nM | 2.2 nM | 91
4 | N=C(N)NCCC[C@H](NC(=O)CCP(=O)(O)C(Cc1ccccc1)NC(=O)OCc1ccccc1)C(=O)N[C@@H](Cc1ccccc1)C(=O)O (mixture of isomers) [compound 4, Z--Phe .PSI. (PO2 CH2)Gly--Arg--Phe] | 1100 nM | 2.7 nM | 409
5 | N=C(N)NCCC[C@H](NC(=O)CCP(=O)(O)C(Cc1ccccc1)NC(=O)OCc1ccccc1)C(=O)N[C@@H](Cc1ccc(O)cc1)C(=O)O (mixture of isomers) [compound 5, Z--Phe .PSI. (PO2 CH2)Gly--Arg--Tyr] | 596 nM | 3.6 nM | 165
6 | CC(C)C[C@H](NC(=O)[C@H](CCCNC(=N)N)NC(=O)CCP(=O)(O)C(Cc1ccccc1)NC(=O)OCc1ccccc1)C(=O)O (mixture of isomers) [compound 6, Z--Phe .PSI. (PO2 CH2)Gly--Arg--Leu] | 846 nM | 5 nM | 169
7 | N=C(N)NCCC[C@H](NC(=O)CCP(=O)(O)C(Cc1ccccc1)NC(=O)OCc1ccccc1)C(=O)N[C@@H](CCC(N)=O)C(=O)O (mixture of isomers) [compound 7, Z--Phe .PSI. (PO2 CH2)Gly--Arg--Gln] | 690 nM | 6.1 nM | 113
8 | CC(C)[C@H](NC(=O)[C@H](CCCNC(=N)N)NC(=O)CCP(=O)(O)C(Cc1ccccc1)NC(=O)OCc1ccccc1)C(=O)O (mixture of isomers) [compound 8, Z--Phe .PSI. (PO2 CH2)Gly--Arg--Val] | 1130 nM | 9.3 nM | 121
9 | CC[C@H](C)[C@H](NC(=O)[C@H](CCCNC(=N)N)NC(=O)CCP(=O)(O)C(Cc1ccccc1)NC(=O)OCc1ccccc1)C(=O)O (mixture of isomers) [compound 9, Z--Phe .PSI. (PO2 CH2)Gly--Arg--Ile] | 589 nM | 9.6 nM | 61
10 | N=C(N)NCCC[C@H](NC(=O)CCP(=O)(O)C(Cc1ccccc1)NC(=O)OCc1ccccc1)C(=O)N[C@@H](Cc1c[nH]c2ccccc12)C(=O)O (mixture of isomers) [compound 10, Z--Phe .PSI. (PO2 CH2)Gly--Arg--Trp] | 2660 nM | 13.1 nM | 203
11 | N=C(N)NCCC[C@H](NC(=O)CCP(=O)(O)C(Cc1ccccc1)NC(=O)OCc1ccccc1)C(=O)NCC(=O)O (mixture of isomers) [compound 11, Z--Phe .PSI. (PO2 CH2)Gly--Arg--Gly] | 1660 nM | 13.8 nM | 120
12 | N=C(N)NCCC[C@H](NC(=O)[C@H](CCCNC(=N)N)NC(=O)CCP(=O)(O)C(Cc1ccccc1)NC(=O)OCc1ccccc1)C(=O)O (mixture of isomers) [compound 12, Z--Phe .PSI. (PO2 CH2)Gly--Arg--Arg] | 2040 nM | 14 nM | 145
13 | CC(CP(=O)(O)C(Cc1ccccc1)NC(=O)OCc1ccccc1)C(=O)N[C@@H](CCCCN)C(=O)N[C@@H](CCC(N)=O)C(=O)O (mixture of isomers) [compound 28, Z--Phe .PSI. (PO2 CH2)Ala--Lys--Gln] |  | 2.18 nM | 
14 | CC(CP(=O)(O)C(Cc1ccccc1)NC(=O)OCc1ccccc1)C(=O)N[C@@H](CCCCN)C(=O)N[C@@H](Cc1ccc(O)cc1)C(=O)O (mixture of isomers) [compound 29, Z--Phe .PSI. (PO2 CH2)Ala--Lys--Tyr] |  | 2.3 nM | 
15 | CC(CP(=O)(O)C(Cc1ccccc1)NC(=O)OCc1ccccc1)C(=O)N[C@@H](CCCCN)C(=O)N[C@H](C(=O)O)C(C)C (mixture of isomers) [compound 30, Z--Phe .PSI. (PO2 CH2)Ala--Lys--Val] |  | 2.6 nM | 
16 | CC(CP(=O)(O)C(Cc1ccccc1)NC(=O)OCc1ccccc1)C(=O)N[C@@H](CCCCN)C(=O)N[C@@H](CCCNC(=N)N)C(=O)O (mixture of isomers) [compound 31, Z--Phe .PSI. (PO2 CH2)Ala--Lys--Arg] |  | 3.17 nM | 
17 | CC(CP(=O)(O)C(Cc1ccccc1)NC(=O)OCc1ccccc1)C(=O)N[C@@H](CCCCN)C(=O)N[C@@H](CC(N)=O)C(=O)O (mixture of isomers) [compound 32, Z--Phe .PSI. (PO2 CH2)Ala--Lys--Asn] |  | 4.9 nM | 
18 | CC(CP(=O)(O)C(Cc1ccccc1)NC(=O)OCc1ccccc1)C(=O)N[C@@H](CCCCN)C(=O)NCC(=O)O (mixture of isomers) [compound 33, Z--Phe .PSI. (PO2 CH2)Ala--Lys--Gly] |  | 5.1 nM | 
19 | CC(CP(=O)(O)C(Cc1ccccc1)NC(=O)OCc1ccccc1)C(=O)N[C@@H](CCCCN)C(=O)N[C@@H](Cc1c[nH]c2ccccc12)C(=O)O (mixture of isomers) [compound 34, Z--Phe .PSI. (PO2 CH2)Ala--Lys--Trp] |  | 5.78 nM | 
20 | CC(CP(=O)(O)C(Cc1ccccc1)NC(=O)OCc1ccccc1)C(=O)N[C@@H](CCCCN)C(=O)N[C@@H](Cc1c[nH]cn1)C(=O)O (mixture of isomers) [compound 35, Z--Phe .PSI. (PO2 CH2)Ala--Lys--His] |  | 7.13 nM | 
21 | CC(CP(=O)(O)C(Cc1ccccc1)NC(=O)OCc1ccccc1)C(=O)N[C@@H](CCCCN)C(=O)N[C@H](C(=O)O)[C@@H](C)O (mixture of isomers) [compound 36, Z--Phe .PSI. (PO2 CH2)Ala--Lys--Thr] |  | 10.1 nM | 
22 | CC(CP(=O)(O)C(Cc1ccccc1)NC(=O)OCc1ccccc1)C(=O)N[C@@H](CCCCN)C(=O)N[C@@H](CO)C(=O)O (mixture of isomers) [compound 37, Z--Phe .PSI. (PO2 CH2)Ala--Lys--Ser] |  | 11.9 nM | 
23 | CC(CP(=O)(O)C(Cc1ccccc1)NC(=O)OCc1ccccc1)C(=O)N[C@@H](CCCCN)C(=O)N[C@@H](CCCCN)C(=O)O (mixture of isomers) [compound 38, Z--Phe .PSI. (PO2 CH2)ASla--Lys--Lys] |  | 26.9 nM | 
24 | CC(CP(=O)(O)C(Cc1ccccc1)NC(=O)OCc1ccccc1)C(=O)N[C@@H](CCCCN)C(=O)N[C@@H](CCC(=O)O)C(=O)O (mixture of isomers) [compound 39, Z--Phe .PSI. (PO2 CH2)Ala--Lys--Glu] |  | 53.5 nM | 
25 | CC(CP(=O)(O)C(Cc1ccccc1)NC(=O)OCc1ccccc1)C(=O)N[C@@H](CCCCN)C(=O)N[C@@H](CC(=O)O)C(=O)O (mixture of isomers) [compound 40, Z--Phe .PSI. (PO2 CH2)Ala--Lys--Asp] |  | 109 nM | 
26 | CC(CP(=O)(O)C(Cc1ccccc1)NC(=O)OCc1ccccc1)C(=O)N[C@@H](CCCCN)C(=O)N1CCC[C@H]1C(=O)O (mixture of isomers) [compound 41, Z--Phe .PSI. (PO2 CH2)Ala--Lys--Pro] |  | 1030 nM | 
